From patent publication US10407422B2, “Triazolopyridine inhibitors of myeloperoxidase” (priority 2015, dated 2019)

Tests used:
myeloperoxidase (MPO) [1] = molecular target: T1, myeloperoxidase (MPO) (Homo sapiens (Human), UniProt P05164); experiment: MPO chlorination assay (APF assay); format: biochemical; settings: potency range class
Summary of the method: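 Chlorinating activity followed by APF cleavage to fluorescein (485/535 nm, 3 min kinetic read) after adding APF and 10 μM H2O2. Beforehand, 200 pM enzyme, compound and 120 mM NaCl sat 10 min at room temperature in 100 mM KPi, pH 7.4. Initial-rate slopes gave % inhibition; IC50 by Hill-slope fit.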

myeloperoxidase (MPO) [2] = molecular target: T1, myeloperoxidase (MPO); experiment: MPO peroxidation assay (Amplex Red assay); format: biochemical; settings: potency range class
Summary of the method: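 IC50 values come from a four-parameter fit of rates taken from the linear 180-540 s portion of a 15 min kinetic read of resorufin (Ex 535/Em 590 nm). Amplex Red (200 μM) plus 10 mM H2O2 was added after a 10 min room-temperature preincubation of inhibitor with 200 pM MPO and 40 nM H2O2 in 100 mM KPi, pH 7.4.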

T1 sequence (P05164 49-745): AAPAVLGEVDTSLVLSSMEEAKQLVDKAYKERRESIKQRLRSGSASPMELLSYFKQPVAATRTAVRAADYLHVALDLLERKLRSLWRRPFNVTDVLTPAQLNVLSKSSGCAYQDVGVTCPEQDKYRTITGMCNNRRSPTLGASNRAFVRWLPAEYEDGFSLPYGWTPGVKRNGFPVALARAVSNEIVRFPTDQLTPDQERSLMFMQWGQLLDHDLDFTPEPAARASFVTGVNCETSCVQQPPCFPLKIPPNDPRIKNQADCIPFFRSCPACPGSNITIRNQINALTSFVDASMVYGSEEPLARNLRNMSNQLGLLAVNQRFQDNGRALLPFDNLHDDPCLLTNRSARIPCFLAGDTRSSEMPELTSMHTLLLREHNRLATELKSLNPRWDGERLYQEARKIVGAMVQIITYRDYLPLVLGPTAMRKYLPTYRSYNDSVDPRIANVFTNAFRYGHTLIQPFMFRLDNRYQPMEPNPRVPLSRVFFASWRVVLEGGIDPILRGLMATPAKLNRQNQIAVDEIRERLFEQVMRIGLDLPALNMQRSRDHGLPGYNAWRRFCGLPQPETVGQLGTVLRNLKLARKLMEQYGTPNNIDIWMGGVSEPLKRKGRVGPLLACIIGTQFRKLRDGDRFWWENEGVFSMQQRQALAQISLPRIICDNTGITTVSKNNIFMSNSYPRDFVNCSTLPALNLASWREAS

Cc1nc(-c2ccc(Cl)cc2)sc1Cn1cc(Cc2cc(N)nc3[nH]nnc23)cn1 [Example 119, 7-((1-((2-(4-Chlorophenyl)-4-methylthiazol-5-yl)methyl)-1H-pyrazol-4-yl)methyl)-3H-[1,2,3]triazolo[4,5-b]pyridin-5-amine] showed an IC50 (myeloperoxidase (MPO) [1]) of 0.101 to 0.999 µM and an IC50 (myeloperoxidase (MPO) [2]) of 0.001 to 0.1 µM.
With Nc1cc(Cc2cnn(Cc3nc(-c4ccccc4)no3)c2)c2nn[nH]c2n1 [Example 120, 7-((1-((3-Phenyl-1,2,4-oxadiazol-5-yl)methyl)-1H-pyrazol-4-yl)methyl)-3H-[1,2,3]triazolo[4,5-b]pyridin-5-amine] the IC50 (myeloperoxidase (MPO) [1]) was 0.101 to 0.999 µM and the IC50 (myeloperoxidase (MPO) [2]) was 0.001 to 0.1 µM.
In the case of Nc1cc(Cc2cnn(Cc3cc(-c4ccccc4)on3)c2)c2nn[nH]c2n1 [Example 121, 7-((1-((5-Phenylisoxazol-3-yl)methyl)-1H-pyrazol-4-yl)methyl)-3H-[1,2,3]triazolo[4,5-b]pyridin-5-amine], the IC50 (myeloperoxidase (MPO) [1]) is reported as 0.101 to 0.999 µM and the IC50 (myeloperoxidase (MPO) [2]) is reported as 0.001 to 0.1 µM.
Compound CS(=O)(=O)c1cccc(Cn2cc(Cc3cc(N)nc4[nH]nnc34)cn2)c1 [Example 122, 7-((1-(3-(Methylsulfonyl)benzyl)-1H-pyrazol-4-yl)methyl)-3H-[1,2,3]triazolo[4,5-b]pyridin-5-amine] has an IC50 (myeloperoxidase (MPO) [1]) of 0.101 to 0.999 µM and an IC50 (myeloperoxidase (MPO) [2]) of 0.001 to 0.1 µM.
Compound Nc1cc(Cc2cnn(Cc3cccc(-c4ccccc4)n3)c2)c2nn[nH]c2n1 [Example 123, 7-((1-((6-Phenylpyridin-2-yl)methyl)-1H-pyrazol-4-yl)methyl)-3H-[1,2,3]triazolo[4,5-b]pyridin-5-amine] has an IC50 (myeloperoxidase (MPO) [1]) of 0.001 to 0.1 µM and an IC50 (myeloperoxidase (MPO) [2]) of 0.001 to 0.1 µM.
Nc1cc(Cc2cnn(Cc3cccc(-c4cccnc4)c3)c2)c2nn[nH]c2n1 [Example 124, 7-((1-(3-(Pyridin-3-yl)benzyl)-1H-pyrazol-4-yl)methyl)-3H-[1,2,3]triazolo[4,5-b]pyridin-5-amine] gave an IC50 (myeloperoxidase (MPO) [1]) of 0.001 to 0.1 µM and an IC50 (myeloperoxidase (MPO) [2]) of 0.001 to 0.1 µM.
Nc1cc(Cc2cnn(Cc3cncc(-c4ccccc4)c3)c2)c2nn[nH]c2n1 [Example 125, 7-((1-((5-Phenylpyridin-3-yl)methyl)-1H-pyrazol-4-yl)methyl)-3H-[1,2,3]triazolo[4,5-b]pyridin-5-amine] gave an IC50 (myeloperoxidase (MPO) [1]) of 0.001 to 0.1 µM and an IC50 (myeloperoxidase (MPO) [2]) of 0.001 to 0.1 µM.
Nc1cccc(Cn2cc(Cc3cc(N)nc4[nH]nnc34)cn2)c1 [Example 126, 7-((1-(3-Aminobenzyl)-1H-pyrazol-4-yl)methyl)-3H-[1,2,3]triazolo[4,5-b]pyridin-5-amine] showed an IC50 (myeloperoxidase (MPO) [1]) of 0.101 to 0.999 µM and an IC50 (myeloperoxidase (MPO) [2]) of 0.001 to 0.1 µM.
Nc1cc(Cc2cnn(Cc3ccc4cnccc4c3)c2)c2nn[nH]c2n1 [Example 127, 7-((1-(Isoquinolin-6-ylmethyl)-1H-pyrazol-4-yl)methyl)-3H-[1,2,3]triazolo[4,5-b]pyridin-5-amine] gave an IC50 (myeloperoxidase (MPO) [1]) of 0.101 to 0.999 µM and an IC50 (myeloperoxidase (MPO) [2]) of 0.101 to 0.999 µM.
Work on Nc1cc(Cc2cnn(Cc3ccc4ncccc4c3)c2)c2nn[nH]c2n1 [Example 128, 7-((1-(Quinolin-6-ylmethyl)-1H-pyrazol-4-yl)methyl)-3H-[1,2,3]triazolo[4,5-b]pyridin-5-amine] yielded an IC50 (myeloperoxidase (MPO) [1]) of 0.101 to 0.999 µM and an IC50 (myeloperoxidase (MPO) [2]) of 0.001 to 0.1 µM.
CC(C)(C)OC(=O)N1CCc2cc(Cn3cc(Cc4cc(N)nc5[nH]nnc45)cn3)ccc2C1 [Example 129, tert-Butyl 6-((4-((5-amino-3H-[1,2,3]triazolo[4,5-b]pyridin-7-yl)methyl)-1H-pyrazol-1-yl)methyl)-3,4-dihydroisoquinoline-2(1H)-carboxylate] gave an IC50 (myeloperoxidase (MPO) [1]) of 1 to 10 µM and an IC50 (myeloperoxidase (MPO) [2]) of 0.101 to 0.999 µM.
Nc1cc(Cc2cnn(Cc3ccc4c(c3)CCN(C(=O)c3ncc[nH]3)C4)c2)c2nn[nH]c2n1 [Example 131, (6-((4-((5-Amino-3H-[1,2,3]triazolo[4,5-b]pyridin-7-yl)methyl)-1H-pyrazol-1-yl)methyl)-3,4-dihydroisoquinolin-2(1H)-yl)(1H-imidazol-2-yl)methanone] gave an IC50 (myeloperoxidase (MPO) [1]) of 0.101 to 0.999 µM and an IC50 (myeloperoxidase (MPO) [2]) of 0.101 to 0.999 µM.
Nc1cc(Cc2cnn(Cc3ccc4[nH]c(=O)ccc4c3)c2)c2nn[nH]c2n1 [Example 132, 6-((4-((5-Amino-3H-[1,2,3]triazolo[4,5-b]pyridin-7-yl)methyl)-1H-pyrazol-1-yl)methyl)quinolin-2(1H)-one] gave an IC50 (myeloperoxidase (MPO) [1]) of 0.001 to 0.1 µM and an IC50 (myeloperoxidase (MPO) [2]) of 0.001 to 0.1 µM.
With Nc1cc(Cc2cnn(Cc3cccc(-c4ccccn4)c3)c2)c2nn[nH]c2n1 [Example 133, 7-[(1-{[3-(Pyridin-2-yl)phenyl]methyl}-1H-pyrazol-4-yl)methyl]-3H-[1,2,3]triazolo[4,5-b]pyridin-5-amine] the IC50 (myeloperoxidase (MPO) [1]) was 0.001 to 0.1 µM and the IC50 (myeloperoxidase (MPO) [2]) was 0.001 to 0.1 µM.
With CC(C)(C)c1cccc(Cn2cc(Cc3cc(N)nc4[nH]nnc34)cn2)c1 [Example 134, 7-({1-[(3-tert-Butylphenyl)methyl]-1H-pyrazol-4-yl}methyl)-3H-[1,2,3]triazolo[4,5-b]pyridin-5-amine] the IC50 (myeloperoxidase (MPO) [1]) was 0.001 to 0.1 µM and the IC50 (myeloperoxidase (MPO) [2]) was 0.001 to 0.1 µM.
Nc1cc(Cc2cnn(Cc3cccc4c3CCCC4)c2)c2nn[nH]c2n1 [Example 135, 7-{[1-(5,6,7,8-Tetrahydronaphthalen-1-ylmethyl)-1H-pyrazol-4-yl]methyl}-3H-[1,2,3]triazolo[4,5-b]pyridin-5-amine] showed an IC50 (myeloperoxidase (MPO) [1]) of 0.001 to 0.1 µM and an IC50 (myeloperoxidase (MPO) [2]) of 0.001 to 0.1 µM.
Work on Nc1cc(Cc2cnn(CC3CCc4ccccc4C3)c2)c2nn[nH]c2n1 (centres unmarked) [Example 136, 7-{[1-(1,2,3,4-Tetrahydronaphthalen-2-ylmethyl)-1H-pyrazol-4-yl]methyl}-3H-[1,2,3]triazolo[4,5-b]pyridin-5-amine] yielded an IC50 (myeloperoxidase (MPO) [1]) of 0.001 to 0.1 µM and an IC50 (myeloperoxidase (MPO) [2]) of 0.001 to 0.1 µM.
Cn1nc(Cn2cc(Cc3cc(N)nc4[nH]nnc34)cn2)c2ccccc21 [Example 137, 7-({1-[(1-Methyl-1H-indazol-3-yl)methyl]-1H-pyrazol-4-yl}methyl)-3H-[1,2,3]triazolo[4,5-b]pyridin-5-amine] was tested, and the IC50 (myeloperoxidase (MPO) [1]) was 0.101 to 0.999 µM and the IC50 (myeloperoxidase (MPO) [2]) was 0.001 to 0.1 µM.
CCn1c(Cn2cc(Cc3cc(N)nc4[nH]nnc34)cn2)nc2ccccc21 [Example 138, 7-((1-((1-Ethyl-1H-benzo[d]imidazol-2-yl)methyl)-1H-pyrazol-4-yl)methyl)-3H-[1,2,3]triazolo[4,5-b]pyridin-5-amine] gave an IC50 (myeloperoxidase (MPO) [1]) of 0.101 to 0.999 µM and an IC50 (myeloperoxidase (MPO) [2]) of 0.001 to 0.1 µM.
In the case of CC1CCN(S(=O)(=O)c2cccc(Cn3cc(Cc4cc(N)nc5[nH]nnc45)cn3)c2)CC1 [Example 139, 7-{[1-({3-[(4-Methylpiperidin-1-yl)sulfonyl]phenyl}methyl)-1H-pyrazol-4-yl]methyl}-3H-[1,2,3]triazolo[4,5-b]pyridin-5-amine], the IC50 (myeloperoxidase (MPO) [1]) is reported as 0.101 to 0.999 µM and the IC50 (myeloperoxidase (MPO) [2]) is reported as 0.001 to 0.1 µM.
Cc1cncc(Oc2cccc(Cn3cc(Cc4cc(N)nc5[nH]nnc45)cn3)c2)n1 [Example 140, 7-{[1-({3-[(6-Methylpyrazin-2-yl)oxy]phenyl}methyl)-1H-pyrazol-4-yl]methyl}-3H-[1,2,3]triazolo[4,5-b]pyridin-5-amine] showed an IC50 (myeloperoxidase (MPO) [1]) of 0.101 to 0.999 µM and an IC50 (myeloperoxidase (MPO) [2]) of 0.001 to 0.1 µM.
Work on COc1ccc(Cn2cc(Cc3cc(N)nc4[nH]nnc34)cn2)cc1 [Example 141, 7-({1-[(4-Methoxyphenyl)methyl]-1H-pyrazol-4-yl}methyl)-3H-[1,2,3]triazolo[4,5-b]pyridin-5-amine] yielded an IC50 (myeloperoxidase (MPO) [1]) of 0.001 to 0.1 µM and an IC50 (myeloperoxidase (MPO) [2]) of 0.001 to 0.1 µM.
With Nc1cc(Cc2cnn(C(CCO)c3ccccc3)c2)c2nn[nH]c2n1 (centres unmarked) [Example 143, 3-(4-((5-Amino-3H-[1,2,3]triazolo[4,5-b]pyridin-7-yl)methyl)-1H-pyrazol-1-yl)-3-phenylpropan-1-ol] the IC50 (myeloperoxidase (MPO) [1]) was 0.101 to 0.999 µM and the IC50 (myeloperoxidase (MPO) [2]) was 0.101 to 0.999 µM.
In the case of CC(C)(C)[Si](C)(C)OCC(c1ccccc1)n1cc(Cc2cc(N)nc3[nH]nnc23)cn1 (centres unmarked) [Example 144], the IC50 (myeloperoxidase (MPO) [1]) is reported as 0.101 to 0.999 µM and the IC50 (myeloperoxidase (MPO) [2]) is reported as 0.101 to 0.999 µM.
For Nc1cc(Cc2cnn(C(CO)c3ccccc3)c2)c2nn[nH]c2n1 (centres unmarked) [Example 145, 2-(4-((5-Amino-3H-[1,2,3]triazolo[4,5-b]pyridin-7-yl)methyl)-1H-pyrazol-1-yl)-2-phenylethanol], the IC50 (myeloperoxidase (MPO) [1]) was 0.101 to 0.999 µM and the IC50 (myeloperoxidase (MPO) [2]) was 0.101 to 0.999 µM.
Nc1cc(Cc2cnn(C(CCCO)c3ccccc3)c2)c2nn[nH]c2n1 (centres unmarked) [Example 146, 4-[4-({5-Amino-3H-[1,2,3]triazolo[4,5-b]pyridin-7-yl}methyl)-1H-pyrazol-1-yl]-4-phenylbutan-1-ol] was tested, and the IC50 (myeloperoxidase (MPO) [1]) was 0.101 to 0.999 µM and the IC50 (myeloperoxidase (MPO) [2]) was 0.101 to 0.999 µM.
With CC(C)(C)OC(=O)N1CCCc2ccc(Cn3cc(Cc4cc(N)nc5[nH]nnc45)cn3)cc21 [Example 147, tert-Butyl 7-{[4-({5-amino-3H-[1,2,3]triazolo[4,5-b]pyridin-7-yl}methyl)-1H-pyrazol-1-yl]methyl}-1,2,3,4-tetrahydroquinoline-1-carboxylate] the IC50 (myeloperoxidase (MPO) [1]) was 0.101 to 0.999 µM and the IC50 (myeloperoxidase (MPO) [2]) was 0.101 to 0.999 µM.
CC(C)(C)OC(=O)N1CCc2ccc(Cn3cc(Cc4cc(N)nc5[nH]nnc45)cn3)cc2C1 [Example 148, tert-Butyl 7-{[4-({5-amino-3H-[1,2,3]triazolo[4,5-b]pyridin-7-yl}methyl)-1H-pyrazol-1-yl]methyl}-1,2,3,4-tetrahydroisoquinoline-2-carboxylate] was tested, and the IC50 (myeloperoxidase (MPO) [1]) was 0.101 to 0.999 µM and the IC50 (myeloperoxidase (MPO) [2]) was 0.101 to 0.999 µM.
Work on COc1ccc(Cn2cc(Cc3cc(N)nc4[nH]nnc34)cn2)cn1 [Example 149, 7-({1-[(6-Methoxypyridin-3-yl)methyl]-1H-pyrazol-4-yl}methyl)-3H-[1,2,3]triazolo[4,5-b]pyridin-5-amine] yielded an IC50 (myeloperoxidase (MPO) [1]) of 0.101 to 0.999 µM and an IC50 (myeloperoxidase (MPO) [2]) of 0.001 to 0.1 µM.
Nc1cc(Cc2cnn(Cc3ccc4c(c3)OCO4)c2)c2nn[nH]c2n1 [Example 150, 7-{[1-(2H-1,3-Benzodioxol-5-ylmethyl)-1H-pyrazol-4-yl]methyl}-3H-[1,2,3]triazolo[4,5-b]pyridin-5-amine] was tested, and the IC50 (myeloperoxidase (MPO) [1]) was 0.101 to 0.999 µM and the IC50 (myeloperoxidase (MPO) [2]) was 0.001 to 0.1 µM.
Compound Nc1cc(Cc2cnn(Cc3ccc4c(c3)OCCO4)c2)c2nn[nH]c2n1 [Example 151, 7-{[1-(2,3-Dihydro-1,4-benzodioxin-6-ylmethyl)-1H-pyrazol-4-yl]methyl}-3H-[1,2,3]triazolo[4,5-b]pyridin-5-amine] has an IC50 (myeloperoxidase (MPO) [1]) of 0.101 to 0.999 µM and an IC50 (myeloperoxidase (MPO) [2]) of 0.001 to 0.1 µM.
